Assay results from the CheMixHub viscosity set.

Assay: xn = mol fraction of the nth substance listed

CCCC(C)O (stereo not given) + CC(=O)N(C)C
viscosity [mPa·s], 100 kPa
Conditions	298.15 K	313.15 K
x2 = 0.0565	2.917	1.821
x2 = 0.1029	2.592	1.693
x2 = 0.2137	2.057	1.432
x2 = 0.3057	1.757	1.276
x2 = 0.409	1.528	1.145
x2 = 0.5031	1.387	1.053
x2 = 0.6045	1.255	0.971
x2 = 0.7015	1.158	0.904
x2 = 0.7996	1.068	0.842
x2 = 0.9005	0.987	0.784
x2 = 0.9581	0.943	–

CC[N+](CC)(CC)CC.[OH-] + CC(=O)N(C)C
viscosity [mPa·s], 101 kPa
Conditions	298.15 K	303.15 K	308.15 K	313.15 K
x1 = 0.0216	1.19	1.11	1.03	0.96
x1 = 0.0663	1.64	1.54	1.42	1.32
x1 = 0.1133	2.08	1.95	1.79	1.67
x1 = 0.1628	2.49	2.33	2.16	2.01
x1 = 0.215	2.83	2.66	2.49	2.33
x1 = 0.2422	2.99	2.81	2.64	2.47
x1 = 0.2988	3.28	3.09	2.89	2.72
x1 = 0.3899	3.63	3.43	3.23	3.04
x1 = 0.4894	3.89	3.69	3.47	3.27
x1 = 0.5986	4.08	3.87	3.63	3.44
x1 = 0.7188	4.24	4.04	3.77	3.59
x1 = 0.806	4.39	4.18	3.91	3.76
x1 = 0.8995	4.59	4.38	4.11	3.95

COCCO + CC(=O)N(C)C
viscosity [mPa·s], 101 kPa
Conditions	298.15 K	308.15 K	318.15 K
x2 = 0.0301	1.535	1.254	1.048
x2 = 0.06	1.528	1.25	1.046
x2 = 0.0871	1.52	1.247	1.045
x2 = 0.125	1.507	1.239	1.041
x2 = 0.1767	1.488	1.228	1.034
x2 = 0.225	1.466	1.214	1.026
x2 = 0.2902	1.432	1.192	1.011
x2 = 0.364	1.39	1.164	0.991
x2 = 0.4602	1.329	1.122	0.96
x2 = 0.52	1.289	1.092	0.938
x2 = 0.5611	1.26	1.07	0.921
x2 = 0.62	1.216	1.038	0.897
x2 = 0.6654	1.181	1.011	0.876
x2 = 0.725	1.135	0.977	0.849
x2 = 0.7732	1.099	0.949	0.827
x2 = 0.825	1.059	0.919	0.803
x2 = 0.8847	1.014	0.885	0.775
x2 = 0.9501	0.965	0.847	0.746

CCCCBr + CC(C)(C)O
viscosity [mPa·s], 101.33 kPa
Conditions	x2 = 0.0988	x2 = 0.197	x2 = 0.3014	x2 = 0.4101	x2 = 0.5017	x2 = 0.5982	x2 = 0.7029	x2 = 0.7982	x2 = 0.8931
298.15 K	0.597	0.612	0.643	0.692	0.798	0.926	1.148	1.509	2.232
303.15 K	0.564	0.576	0.602	0.642	0.736	0.839	1.018	1.302	1.841
308.15 K	0.534	0.54	0.563	0.598	0.679	0.763	0.909	1.134	1.543
313.15 K	0.508	0.511	0.529	0.557	0.632	0.7	0.817	0.995	1.311
318.15 K	0.494	0.482	0.497	0.521	0.581	0.638	0.737	0.882	1.127

COCCO + CC(C)(C)O
Conditions	viscosity [mPa·s]
303.15 K, 101.3 kPa, x1 = 0.1011	2.892
303.15 K, 101.3 kPa, x1 = 0.1977	2.538
303.15 K, 101.3 kPa, x1 = 0.2694	2.324
303.15 K, 101.3 kPa, x1 = 0.3774	2.043
303.15 K, 101.3 kPa, x1 = 0.4851	1.831
303.15 K, 101.3 kPa, x1 = 0.6774	1.579
303.15 K, 101.3 kPa, x1 = 0.745	1.523
303.15 K, 101.3 kPa, x1 = 0.849	1.456
303.15 K, 101.3 kPa, x1 = 0.9028	1.427
308.15 K, 101.33 kPa, x1 = 0.119	2.241
308.15 K, 101.33 kPa, x1 = 0.2504	1.929
308.15 K, 101.33 kPa, x1 = 0.3687	1.713
308.15 K, 101.33 kPa, x1 = 0.5096	1.527
308.15 K, 101.33 kPa, x1 = 0.6441	1.402
308.15 K, 101.33 kPa, x1 = 0.7218	1.35
308.15 K, 101.33 kPa, x1 = 0.8035	1.298
308.15 K, 101.33 kPa, x1 = 0.9026	1.242

CC(O)=S + CC(C)=O
298.1 K, 101 kPa
Conditions	viscosity [mPa·s]
x1 = 0.2	0.405
x1 = 0.4	0.479
x1 = 0.5	0.511
x1 = 0.6	0.551
x1 = 0.8	0.624

CCCC(=O)O + CC(C)=O
viscosity [mPa·s], 101 kPa
Conditions	x1 = 0.0996	x1 = 0.1883	x1 = 0.3023	x1 = 0.3759	x1 = 0.5144	x1 = 0.5977	x1 = 0.7009	x1 = 0.7989	x1 = 0.9016	x1 = 0.9275
298.15 K	0.3862	0.4576	0.5666	0.6477	0.8181	0.9307	1.071	1.216	1.361	1.408
308.15 K	0.351	0.4131	0.5047	0.5741	0.7153	0.8095	0.9246	1.041	1.158	1.197
318.15 K	0.3183	0.3666	0.4489	0.5135	0.6265	0.7078	0.7969	0.8942	0.9947	1.018

CCOC(=O)C(=O)OCC + CC(C)=O
303.15 K, 101 kPa
Conditions	viscosity [mPa·s]
x1 = 0.0571	0.381
x1 = 0.1199	0.487
x1 = 0.1893	0.599
x1 = 0.2664	0.715
x1 = 0.3527	0.844
x1 = 0.4497	0.979
x1 = 0.5602	1.123
x1 = 0.6858	1.274
x1 = 0.8308	1.453

COCCO + CC(C)=O
viscosity [mPa·s], 101.33 kPa
Conditions	293.15 K	298.15 K	303.15 K
x1 = 0.0508	0.373	0.356	0.342
x1 = 0.1006	0.439	0.416	0.397
x1 = 0.1509	0.507	0.477	0.453
x1 = 0.2015	0.563	0.527	0.5
x1 = 0.2496	0.613	0.572	0.541
x1 = 0.2998	0.652	0.607	0.574
x1 = 0.351	0.688	0.64	0.603
x1 = 0.3995	0.726	0.673	0.632
x1 = 0.4503	0.767	0.709	0.663
x1 = 0.5006	0.818	0.753	0.7
x1 = 0.5504	0.875	0.804	0.742
x1 = 0.6007	0.941	0.861	0.79
x1 = 0.6496	1.012	0.923	0.845
x1 = 0.6998	1.09	0.991	0.905
x1 = 0.7502	1.17	1.062	0.969
x1 = 0.8004	1.248	1.132	1.033
x1 = 0.8511	1.333	1.209	1.106
x1 = 0.8999	1.419	1.287	1.179
x1 = 0.9503	1.542	1.398	1.278

CCCCNCCCC + CC(C)CO
viscosity [mPa·s], 101.33 kPa
Conditions	298.15 K	308.15 K	318.15 K
x1 = 0.0659	3.147	2.311	1.743
x1 = 0.0962	3.01	2.218	1.683
x1 = 0.1558	2.74	2.038	1.562
x1 = 0.1967	2.557	1.918	1.482
x1 = 0.2681	2.25	1.708	1.336
x1 = 0.3132	2.076	1.591	1.256
x1 = 0.3956	1.791	1.394	1.118
x1 = 0.4699	1.576	1.245	1.011
x1 = 0.5552	1.379	1.11	0.914
x1 = 0.6322	1.234	1.007	0.838
x1 = 0.7567	1.05	0.874	0.743
x1 = 0.8163	0.985	0.824	0.708
x1 = 0.8647	0.93	0.787	0.678
x1 = 0.8978	0.901	0.766	0.662
x1 = 0.9162	0.882	0.751	0.651
